These results are taken from US20060269480A1, “Multi-triggered self-immolative dendritic compounds” (Ramot At Tel Aviv University Ltd., priority 2005, published 2006).

Assay [1] concerns MOLT-3 cells. Put plainly: Apoptosis by annexin V/7-AAD flow cytometry. The assay is classed as cell-based, human. As to conditions: 25 nM drug or prodrug, 1 μM 38C2 or PGA where stated. As for the experimental part:
(§1) Cell lines: Human T-lineage acute lymphoblastic leukemia (ALL) cell line MOLT-3, and human erythroleukemia cell line HEL were purchased from American Type Culture Collection (ATCC, Rockville, Md.) and maintained in RPMI 1640 medium (Hyclone, Logan, Utah) supplemented with 10% FCS, 1.5 gram/liter sodium bicarbonate, 10 mM HEPES, 1 mM sodium pyruvate, and antibiotics (Gibco, Grand Island, N.Y.).
Assessment of apoptosis: Cells were stained with Phycoerythrin (PE)-conjugated annexin V and 7-AAD using the annexin V kit (BD PharMingen, San Diego, Calif.) according to the manufacture's protocol. In brief, cells were collected at different time points, washed once with EDTA-free PBS, and then incubated for 15 minutes with a mixture containing annexin V-PE and 7-AAD in binding buffer (10 mM HEPES (pH 7.4), 140 mM NaCl, and 2.5 mM CaCl2). Thereafter, the supernatants were removed, and 400 μl of binding buffer was added to each sample. The fluorescence was analyzed by flow cytometry (FACScan, Becton Dickinson, San Jose, Calif.) for the presence of viable (AV^− and 7-AAD^−), early apoptotic (AV^+, 7-AAD^−), and late apoptotic/secondary necrotic (AV^+ and 7-AAD^+) cells.
MOLT-3cells were incubated in the presence of Compound 16 and PGA or Ab38C2, as described in the Methods section hereinabove, for various time periods. […]
(A flow cytometer gives signals particle by particle.)

The test system of the next assay is HEL cells. Put plainly: Cell growth inhibition, [3H]thymidine proliferation assay. The assay is classed as cell-based. The settings on record: Homo sapiens, read-out: IC50, HEL cells, 72 hours incubation, 38C2 or PGA at 1 μM where stated, read-out: IC50, Hell cells. As for the experimental part:
as §1
(§2) Cytotoxicity assays: Stock solutions of 2 mM doxorubicin (Dox) and dual-triggered prodrug (pro-Dox, Compound 16) in dimethylformamide were stored at 4° C. For cell-growth inhibition assays, 100 μM solutions of the drug or prodrug in PBS were freshly prepared from the 2 mM stock solutions.
(§3) Cells were harvested from culture dishes, washed once with HBSS, re-suspended in cell culture medium, and plated in 96-well tissue culture plate at a density of 5×10^3/well in 100 μl media. Drugs were further diluted in cell culture medium to yield final concentration of 50 pM-1 μM and added to the cells. […] The cells were frozen at −80° C. overnight and subsequently processed on a multichannel automated cell harvester (Cambridge Technology, Cambridge, Mass.) and counted in a liquid scintillation beta counter (Beckman Coulter). […] The inhibition in experiment E was calculated according to the following formula: (background−E)/background×100%. […]

The subject of assay [2] is MOLT-3 cells. The description is as above. The assay is classed as cell-based. The settings on record: Homo sapiens, 72 hours incubation, 38C2 or PGA at 1 μM where stated. As for the experimental part: as §1, §2, §3

As a reminder, the IC50 is the concentration that gives 50% inhibition. For the compound `COc1cccc2c1C(=O)c1c(O)c3c(c(O)c1C2=O)C[C@@](O)(C(=O)CO)C[C@@H]3O[C@H]1C[C@H](N)[C@H](O)[C@H](C)O1` [Dox, doxorubicin], in the assay on MOLT-3 cells [1], the “incubation time after which the majority of cells were in early or late apoptotic state” value worked out at 24 h. The induction of apoptosis result with MOLT-3 cells [1] (up to 72 hours) was “undergo apoptosis”. Also, the IC50 is 20 nM in the assay on HEL cells and 3 nM in the assay with MOLT-3 cells [2].
